Molecular target: T1, TβRI (Homo sapiens, UniProt P36897)
T1 construct: using either the kinase domain of ALK5 with Smad3 as substrate; GST
T1 sequence (P36897 205-495 limits assumed): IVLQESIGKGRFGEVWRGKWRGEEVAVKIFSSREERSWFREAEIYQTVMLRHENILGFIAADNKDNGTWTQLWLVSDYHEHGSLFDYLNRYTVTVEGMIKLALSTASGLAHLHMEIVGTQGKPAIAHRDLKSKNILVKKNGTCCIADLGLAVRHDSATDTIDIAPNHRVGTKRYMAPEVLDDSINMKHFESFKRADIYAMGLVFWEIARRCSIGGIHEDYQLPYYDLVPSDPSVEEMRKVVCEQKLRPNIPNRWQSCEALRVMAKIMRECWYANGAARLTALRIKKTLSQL
Assay: ALK-5 (TβRI) kinase assay
Assay type: biochemical
Settings: read-out: in vitro IC50 value against TβRI
Experimental: ALK-5 (TβRI) Kinase Assay Protocol
The kinase assays were performed with 65 nM GST-ALK5 and 84 nM GST-Smad3 in 50 mM HEPES, 5 mM MgCl2, 1 mM CaCl2, 1 mM dithiothreitol, and 3_M ATP. Reactions were incubated with 0.5_Ci of [33 P]ATP for 3 h at 30° C. Phosphorylated protein was captured on P-81 paper (Whatman, Maidstone, England), washed with 0.5% phosphoric acid, and counted by liquid scintillation. Alternatively, Smad3 or Smad1 protein was also coated onto FlashPlate Sterile Basic Microplates (PerkinElmer Life Sciences, Boston, Mass.). Kinase assays were then performed in Flash-Plates with same assay conditions using either the kinase domain of ALK5 with Smad3 as substrate or the kinase domain of ALK6 (BMP receptor) with Smad1 as substrate. Plates were washed three times with phosphate buffer and counted by TopCount (Packard Bio-science, Meriden, Conn.). (Laping, N. J. et al. Molecular Pharmacology 62:58-64 (2002)).

IC50: 253 nM
SMILES: Cc1cccc(-c2c(-c3ccc4nnn(C)c4c3)nc3ncccn23)n1 [Example 15, 1-Methyl-6-[3-(6-methyl-pyridin-2-yl)-imidazo[1,2-a]pyrimidin-2-yl]-1H-benzotriazole]

Reference: patent US7417041B2, “Imidazopyrimidines as transforming growth factor (TGF) inhibitors” (Pfizer Inc., priority 2003, dated 2008)
